We go through 1 compound from patent US4160829A, “Antibacterial 1,2,4-oxadiazolylacetamido cephalosporins” (Gist-Brocades N.V., priority 1972, dated 1979).

The subject of test [1] is Staph.aureus A 2001. The test is described as follows: agar serial dilution test. The format is cell-based, Staphylococcus aureus. The following applies: Staphylococcus aureus, A2001, 24 h, agar serial dilution, 24 hours, 37° C.; read-out: minimal inhibitory concentration (MIC).
The next test concerns Staph.aureus A 321. The test is described as follows: agar serial dilution test. Format: cell-based, Staphylococcus aureus. The following applies: Staphylococcus aureus, A321, 24 h, agar serial dilution, 24 hours, 37° C.; read-out: minimal inhibitory concentration (MIC).
Test [2] relates to Prot.mirab. A 1200. Kind of test: agar serial dilution test. Format: cell-based, Proteus mirabilis. Particulars: Proteus mirabilis, 24 h, agar serial dilution, 24 hours, 37° C.; read-out: minimal inhibitory concentration (MIC).
In another test the test system is Prot.rettg. A 821. Kind of test: agar serial dilution test. The format is cell-based, Proteus rettgeri. Particulars: Providencia rettgeri, 24 h, agar serial dilution, 24 hours, 37° C.; read-out: minimal inhibitory concentration (MIC).
For a further test, the system named is Actinob.equ. T 3. The test is described as follows: agar serial dilution test. The format is cell-based. The following applies: 24 hours, 37° C., read-out: minimal inhibitory concentration (MIC).
In test [3] the test system is Staph.aureus A 2001. The test is described as follows: micro serial dilution test. The following applies: Staphylococcus aureus, A2001, 18 h, micro serial dilution (in brackets), about 18 hours, 30° C. or 37° C.; read-out: minimal inhibitory concentration (MIC). The format is cell-based, Staphylococcus aureus.
Test [4] has as its system Prot.mirab. A 1200. Kind of test: micro serial dilution test. Format: cell-based. The following applies: Proteus mirabilis; micro serial dilution (in brackets), about 18 hours, 30° C. or 37° C.; read-out: minimal inhibitory concentration (MIC).
The subject of another test is Pseud.aerug. H 10. The test is described as follows: agar serial dilution test. Format: cell-based. The following applies: agar serial dilution, 24 hours, 37° C.; read-out: minimal inhibitory concentration (MIC).
For another test, the system named is Esch.coli U 20. Kind of test: agar serial dilution test. The following applies: Escherichia coli, U20; agar serial dilution, 24 hours, 37° C.; read-out: minimal inhibitory concentration (MIC). The format is cell-based, Escherichia coli.
The test system of the next test is Dipl.pneum. L 54. The test is described as follows: agar serial dilution test. Format: cell-based, Diplococcus pneumoniae. Particulars: Streptococcus pneumoniae; agar serial dilution, 24 hours, 37° C.; read-out: minimal inhibitory concentration (MIC).

In the case of `Cc1noc(CC(=O)N[C@@H]2C(=O)N3C(C(=O)O)=C(CSc4nnnn4C)CS[C@H]23)n1` [Compound G, sodium-7[(3-methyl-1,2,4-oxadiazol-5-yl)-acetamido] 3 [1-methyl-tetrazol-5-yl-mercaptomethyl] 3-cephem-4-carboxylate], the MIC with Staph.aureus A 2001 [1] is 0.5 mg/L; with Staph.aureus A 321 it was 0.25 mg/L; with Prot.mirab. A 1200 [2], 25 mg/L; in the test on Prot.rettg. A 821, 0.25 mg/L; in the test on Actinob.equ. T 3, 0.5 mg/L; in the test on Staph.aureus A 2001 [3], 0.6 mg/L. The MIC in the test on Prot.mirab. A 1200 [4] was found to be 15 mg/L; with Pseud.aerug. H 10, 100 mg/L; in the test on Esch.coli U 20 it was 0.75 mg/L; in the test on Dipl.pneum. L 54, 0.5 mg/L.
